Data: patent publication US20250230193A1, “CYCLIC COMPOUND HAVING SELECTIVE KRAS INHIBITORY EFFECT ON HRAS AND NRAS” (CHUGAI SEIYAKU KABUSHIKI KAISHA, priority 2022, published 2025)
Where a SMILES comes first, the peptide text is derived from it. Bridges are numbered along the chain shown (N, C = ends). [ ]: non-standard residue; d: D form. The star is where a group is joined. hPhe(3-Cl-4-CF3) = N[C@@H](CCc1ccc(C(F)(F)F)c(Cl)c1)C(=O)O; NPrPhe(4-CF3) = CCCN[C@@H](Cc1ccc(C(F)(F)F)cc1)C(=O)O; NMeGly(cPent) = CN[C@H](C(=O)O)C1CCCC1; NMeL = CN[C@@H](CC(C)C)C(=O)O; Morpholide = C1CN(*)CCO1; NMeA = CN[C@@H](C)C(=O)O; Aze = O=C(O)[C@@H]1CCN1; Ac4c = NC1(C(=O)O)CCC1; Sar = CNCC(=O)O

Key:
[1] = target: GDP-bound NRAS wild-type protein (Homo sapiens, UniProt P01111); test: Binding to NRAS by surface plasmon resonance (SPR), Single Cycle Kinetics
GDP-bound NRAS wild-type protein, sequence (P01111 whole entry): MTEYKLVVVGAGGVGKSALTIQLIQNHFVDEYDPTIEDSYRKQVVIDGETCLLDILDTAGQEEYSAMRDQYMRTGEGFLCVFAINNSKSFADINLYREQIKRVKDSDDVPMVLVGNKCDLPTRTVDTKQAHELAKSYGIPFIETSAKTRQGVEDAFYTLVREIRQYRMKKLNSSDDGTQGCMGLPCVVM

[2] = target: GDP-bound HRAS wild-type protein (Homo sapiens, UniProt P01112); test: Binding to HRAS by surface plasmon resonance (SPR), Single Cycle Kinetics
GDP-bound HRAS wild-type protein, sequence (P01112 whole entry): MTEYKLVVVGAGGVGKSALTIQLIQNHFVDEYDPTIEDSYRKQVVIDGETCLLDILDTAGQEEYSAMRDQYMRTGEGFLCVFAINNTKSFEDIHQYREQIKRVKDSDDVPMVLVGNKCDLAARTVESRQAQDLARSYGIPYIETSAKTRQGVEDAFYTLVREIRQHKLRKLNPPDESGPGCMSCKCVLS

[3] = KD ratio, GDP-bound NRAS wild-type vs GDP-bound KRAS wild-type, SPR
[4] = KD ratio, GDP-bound HRAS wild-type vs GDP-bound KRAS wild-type, SPR

Question: Which results are given for `CCC[C@H]1C(=O)N[C@@H]([C@@H](C)CC)C(=O)N(C)CC(=O)N(C)[C@H]2C/C=C\CCN(C2=O)[C@@H](Cc2ccc(C)cc2)C(=O)N(C)CC(=O)N[C@@H](CCc2ccc(C(F)(F)F)c(OC)c2)C(=O)N2C[C@H](OCC)C[C@H]2C(=O)N(C)C2(CCC2)C(=O)N(C)[C@@H](C2CCCC2)C(=O)N(C)[C@H](C(=O)N2CCCCC2)CC(=O)N1C` [PP3104, (2S,8S,12R,14S,20S,23S,27S,30S,36S,38Z)-20-cyclopentyl-12-ethoxy-8-[2-[3-methoxy-4-(trifluoromethyl)phenyl]ethyl]-4,16,19,22,26,32,35-heptamethyl-30-[(1S)-1-methylpropyl]-23-(piperidine-1-carbonyl)-27-propyl-2-(p-tolylmethyl)spiro[1,4,7,10,16,19,22,26,29,32,35-undecazatricyclo[34.5.1.0^10,14]dotetracont-38-ene-17,1′-cyclobutane]-3,6,9,15,18,21,25,28,31,34,42-undecone]?
Answer: NRAS/KRAS (ratio of KD value with respect to GDP-bound NRAS wild-type protein to KD value with respect to KRAS) ([1]; KD ratio NRAS/KRAS, SPR, GDP-bound wild-type proteins): A (a compound having 10 or more and less than 20 is denoted as A); HRAS/KRAS (ratio of KD value with respect to GDP-bound HRAS wild-type protein to KD value with respect to KRAS) ([2]; KD ratio HRAS/KRAS, SPR, GDP-bound wild-type proteins): A (a compound having 10 or more and less than 20 is denoted as A)

Question: Which results are given for `CCO[C@@H]1C[C@H]2C(=O)NC3(CCC3)C(=O)N(C)[C@@H](C3CCCC3)C(=O)N(C)[C@H](C(=O)N(C)C)CC(=O)N(C)[C@@H](CC(C)(C)C)C(=O)N[C@@H]([C@@H](C)CC)C(=O)N(C)CC(=O)N(C)[C@H]3CCCCCN(C3=O)[C@@H](Cc3ccc(C(F)(F)F)cc3)C(=O)N(C)CC(=O)N[C@@H](CCc3cc(F)c(C(F)(F)F)c(F)c3)C(=O)N2C1` [PP0669]?
Answer: NRAS/KRAS (ratio of KD value with respect to GDP-bound NRAS wild-type protein to KD value with respect to KRAS) ([1]; KD ratio NRAS/KRAS, SPR): B (a compound having 3 or more and less than 10 is denoted as B); HRAS/KRAS (ratio of KD value with respect to GDP-bound HRAS wild-type protein to KD value with respect to KRAS) ([2]; KD ratio HRAS/KRAS, SPR): B (a compound having 3 or more and less than 10 is denoted as B)

Question: Which “NRAS/KRAS (ratio of KD value for NRAS to KD value for KRAS)” value [1, 3] does the source give for `CCO[C@@H]1C[C@H]2C(=O)NC3(CC(C)(C)C3)C(=O)N(C)[C@@H](C3CCCC3)C(=O)N3CCC[C@@H]3CC(=O)N(C)[C@@H](CC3CC3)C(=O)N[C@@H]([C@@H](C)CC)C(=O)N(C)CC(=O)N(C)[C@H]3C/C=C\CCN(C3=O)[C@@H](Cc3ccc(C(F)(F)F)cc3)C(=O)N(C)CC(=O)N[C@@H](CCc3cc(F)c(C(F)(F)F)c(F)c3)C(=O)N2C1` [PP1611] here?
Answer: B (a compound having 3 or more and less than 10 is denoted as B)

Question: What about the “HRAS/KRAS (ratio of KD value for HRAS to KD value for KRAS)” value [2, 4] of the same compound?
Answer: B (a compound having 3 or more and less than 10 is denoted as B)

Question: For `CCO[C@@H]1C[C@H]2C(=O)NC3(CCC3)C(=O)N(C)[C@@H](CC(C)C)C(=O)N(C)[C@H](C(=O)N(C)C)CC(=O)N(C)[C@@H](CC)C(=O)N[C@@H]([C@@H](C)CC)C(=O)N(C)CC(=O)N(C)[C@H]3C/C=C\CCN(C3=O)[C@@H](Cc3ccc(C(F)(F)F)cc3)C(=O)N(C)CC(=O)N[C@@H](CCc3cc(F)c(C(F)(F)F)c(F)c3)C(=O)N2C1` [PP1089], which “NRAS/KRAS (ratio of KD value with respect to NRAS to KD value with respect to KRAS)” value [1, 3] is on record?
Answer: AA (a compound having 20 or more is denoted as AA)

Question: What about the “HRAS/KRAS (ratio of KD value with respect to HRAS to KD value with respect to KRAS)” value [2, 4] of the same compound?
Answer: A (a compound having 10 or more and less than 20 is denoted as A)

Question: Which “NRAS/KRAS (ratio of KD value with respect to NRAS to KD value with respect to KRAS)” value [1, 3] does the source give for `CCO[C@@H]1C[C@H]2C(=O)NC3(CCC3)C(=O)N(C)[C@@H](C3CCCC3)C(=O)N(C)[C@H](C(=O)N(C)C)CC(=O)N(C)[C@@H](CC)C(=O)N[C@@H]([C@@H](C)CC)C(=O)N(C)CC(=O)N(C)[C@H]3CCCCN(C3=O)[C@@H](Cc3ccc(C(F)(F)F)cc3)C(=O)N(C)CC(=O)N[C@@H](CCc3ccc(C(F)(F)F)c(C)c3)C(=O)N2C1` [PP0882] here?
Answer: C (A compound having a KD ratio of 0.1 or more and less than 3 is denoted as C)

Question: What about the “HRAS/KRAS (ratio of KD value with respect to HRAS to KD value with respect to KRAS)” value [2, 4] of the same compound?
Answer: B (a compound having 3 or more and less than 10 is denoted as B)

Question: For `CCCN1C(=O)[C@@H]2CCN2C(=O)[C@H](C)N(C)C(=O)[C@H]([C@@H](C)CC)NC(=O)[C@H](CC(C)C)N(C)C(=O)C[C@@H](C(=O)N2CCOCC2)NC(=O)[C@H](C2CCCC2)N(C)C(=O)C2(CCC2)NC(=O)[C@@H]2CCCN2C(=O)[C@H](CCc2ccc(C(F)(F)F)c(Cl)c2)NC(=O)CN(C)C(=O)[C@@H]1Cc1ccc(C(F)(F)F)cc1` [PP0344] ([NMeL]I[NMeA][Aze][NPrPhe(4-CF3)][Sar][hPhe(3-Cl-4-CF3)]P[Ac4c][NMeGly(cPent)]D-Morpholide; lactam N-11), which “NRAS/KRAS (ratio of KD for GDP-bound NRAS wild-type to KD for KRAS)” value ([1]; KD ratio NRAS/KRAS, SPR) is on record?
Answer: C (A compound having a KD ratio of 0.1 or more and less than 3 is denoted as C)

Question: And the “HRAS/KRAS (ratio of KD for GDP-bound HRAS wild-type to KD for KRAS)” value ([2]; KD ratio HRAS/KRAS, SPR)?
Answer: B (a compound having 3 or more and less than 10 is denoted as B)

Question: For `CCO[C@@H]1C[C@H]2C(=O)NC3(CC(C)(C)C3)C(=O)N(C)[C@@H](C(CC)CC)C(=O)N(C)[C@H](C(=O)N(C)C)CC(=O)N(C)[C@H]3CCC/C=C/c4ccc(cc4)C[C@@H](C(=O)N(C)CC(=O)N[C@@H](CCc4ccc(Cl)c(Cl)c4)C(=O)N2C1)N1CC/C=C\C[C@@H](C1=O)N(C)C(=O)CN(C)C(=O)[C@H]([C@@H](C)CC)NC3=O` [PP2580], which “NRAS/KRAS (ratio of KD value with respect to GDP-bound NRAS wild-type protein to KD value with respect to KRAS)” value ([1]; KD ratio NRAS/KRAS, class symbols) is on record?
Answer: AA (a compound having 20 or more is denoted as AA)

Question: What about the “HRAS/KRAS (ratio of KD value with respect to GDP-bound HRAS wild-type protein to KD value with respect to KRAS)” value ([2]; KD ratio HRAS/KRAS, class symbols) of the same compound?
Answer: A (a compound having 10 or more and less than 20 is denoted as A)
